Experimental data as given in PubChem BioAssay (NCI).
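The compound was tested at five concentrations on cells cultured in 96-well plates, with a 48-hour exposure period. GI50: concentration for 50% inhibition of growth. TGI denotes the concentration required for complete inhibition of growth.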 Where a SMILES comes first, the peptide text is derived from it. The star is where a group is joined. Boc = CC(C)(C)OC(=O)*; OBn = c1ccc(CO*)cc1; Bn = c1ccc(C*)cc1

Assays:
Assay in all cases: growth of human tumour cells (NCI), 48 h
RPMI-8226 leukemia = test system: RPMI-8226 leukemia
NCI-H460 lung = test system: NCI-H460 lung
K-562 leukemia = test system: K-562 leukemia
MOLT-4 leukemia = test system: MOLT-4 leukemia
OVCAR-3 ovarian = test system: OVCAR-3 ovarian
TK-10 renal = test system: TK-10 renal
NCI-H23 lung = test system: NCI-H23 lung
SF-268 CNS = test system: SF-268 CNS
HOP-62 NSCLC = test system: HOP-62 NSCLC
NCI-H522 lung = test system: NCI-H522 lung

C=C1CN(C(=O)c2cc3cc(OC)c(OC)c(OC)c3[nH]2)c2cc([N+](=O)[O-])ccc21
TGI (RPMI-8226 leukemia): > 100 µM | TGI (NCI-H460 lung): > 100 µM | TGI (K-562 leukemia): > 100 µM | TGI (MOLT-4 leukemia): > 100 µM | TGI (OVCAR-3 ovarian): > 100 µM | TGI (TK-10 renal): > 100 µM | TGI (NCI-H23 lung): > 100 µM | TGI (SF-268 CNS): > 100 µM

CCCCOP(=O)(OCCCC)C(NS(=O)(=O)c1ccccc1)(C(=O)OCC)C(F)(F)F (stereo not drawn)
TGI (RPMI-8226 leukemia): 66.1 µM | TGI (NCI-H460 lung): > 100 µM | TGI (K-562 leukemia): 59.9 µM | TGI (MOLT-4 leukemia): 58.1 µM | TGI (OVCAR-3 ovarian): 59.5 µM | TGI (TK-10 renal): 87.6 µM | TGI (NCI-H23 lung): > 100 µM | TGI (SF-268 CNS): > 100 µM | TGI (HOP-62 NSCLC): 61.4 µM

Cc1ccc(N=c2oc3c(ccc4ccccc43)nc2Nc2ccc(C)cc2)cc1
TGI (RPMI-8226 leukemia): > 100 µM | TGI (NCI-H460 lung): > 100 µM | TGI (K-562 leukemia): > 100 µM | TGI (MOLT-4 leukemia): > 100 µM | TGI (TK-10 renal): > 100 µM | TGI (NCI-H522 lung): > 100 µM | TGI (NCI-H23 lung): > 100 µM | TGI (SF-268 CNS): > 100 µM | TGI (HOP-62 NSCLC): > 100 µM

Cc1cc([C@H](C#N)c2nc3ccccc3s2)nc(Cl)n1
TGI (RPMI-8226 leukemia): 15.6 µM | TGI (NCI-H460 lung): 15.3 µM | TGI (K-562 leukemia): > 100 µM | TGI (MOLT-4 leukemia): > 100 µM | TGI (OVCAR-3 ovarian): > 100 µM | TGI (TK-10 renal): 44.1 µM | TGI (NCI-H23 lung): 15 µM | TGI (SF-268 CNS): 24 µM | TGI (HOP-62 NSCLC): > 100 µM

CCOC(=O)n1c2ccccc2c2c(O)c(OC)c3c(c21)C(=O)NC3=O
TGI (RPMI-8226 leukemia): > 100 µM | TGI (NCI-H460 lung): > 100 µM | TGI (K-562 leukemia): > 100 µM | TGI (MOLT-4 leukemia): > 100 µM | TGI (OVCAR-3 ovarian): > 100 µM | TGI (TK-10 renal): > 100 µM | TGI (NCI-H522 lung): > 100 µM | TGI (NCI-H23 lung): > 100 µM | TGI (HOP-62 NSCLC): > 100 µM

O=C(O)C(C1NCCS1)N1Cc2ccccc2C1 (stereo not drawn)
TGI (RPMI-8226 leukemia): > 100 µM | TGI (NCI-H460 lung): > 100 µM | TGI (K-562 leukemia): > 100 µM | TGI (MOLT-4 leukemia): > 100 µM | TGI (OVCAR-3 ovarian): > 100 µM | TGI (TK-10 renal): > 100 µM | TGI (NCI-H23 lung): > 100 µM | TGI (HOP-62 NSCLC): > 100 µM

CC(C)CC(NC(=O)C(CCC(=O)OCc1ccccc1)NC(=O)OC(C)(C)C)C(=O)NC(COCc1ccccc1)C(=O)NC(Cc1ccccc1)C(=O)O (stereo not drawn) (Boc-E(OBn)LS(Bn)F-OH; configuration not given here)
TGI (RPMI-8226 leukemia): > 100 µM | TGI (NCI-H460 lung): > 100 µM | TGI (K-562 leukemia): > 100 µM | TGI (MOLT-4 leukemia): > 100 µM | TGI (TK-10 renal): > 100 µM | TGI (NCI-H23 lung): > 100 µM | TGI (HOP-62 NSCLC): > 100 µM

COc1c(Cl)ccc(Cl)c1-c1nnc(-c2c(Cl)c(Cl)c(Cl)c(Cl)c2-c2nc3ccc(C(=O)c4ccccc4)cc3[nH]2)o1
TGI (RPMI-8226 leukemia): 87.4 µM | TGI (K-562 leukemia): > 100 µM | TGI (MOLT-4 leukemia): > 100 µM | TGI (OVCAR-3 ovarian): > 100 µM | TGI (TK-10 renal): > 100 µM | TGI (NCI-H522 lung): > 100 µM | TGI (NCI-H23 lung): > 100 µM | TGI (SF-268 CNS): > 100 µM | TGI (HOP-62 NSCLC): > 100 µM

NC1=CN2c3ccccc3N(CC(=O)N3CCOCC3)C2C=C1 (stereo not drawn)
TGI (NCI-H460 lung): > 100 µM | TGI (K-562 leukemia): > 100 µM | TGI (MOLT-4 leukemia): > 100 µM | TGI (TK-10 renal): > 100 µM | TGI (NCI-H522 lung): > 100 µM | TGI (NCI-H23 lung): > 100 µM | TGI (SF-268 CNS): > 100 µM | TGI (HOP-62 NSCLC): > 100 µM

O=C1OS2(OC(=O)c3cccc4cccc2c34)c2ccccc21 (stereo not drawn)
TGI (RPMI-8226 leukemia): > 100 µM | TGI (K-562 leukemia): > 100 µM | TGI (MOLT-4 leukemia): > 100 µM | TGI (OVCAR-3 ovarian): > 100 µM | TGI (TK-10 renal): > 100 µM | TGI (NCI-H522 lung): > 100 µM | TGI (NCI-H23 lung): > 100 µM | TGI (SF-268 CNS): > 100 µM | TGI (HOP-62 NSCLC): > 100 µM

COc1ccc(NC(=O)c2cc(NC(=O)/C=C/c3ccccc3)c(OC)c(OC)c2)cc1
TGI (RPMI-8226 leukemia): > 100 µM | TGI (NCI-H460 lung): > 100 µM | TGI (K-562 leukemia): > 100 µM | TGI (MOLT-4 leukemia): > 100 µM | TGI (OVCAR-3 ovarian): > 100 µM | TGI (TK-10 renal): > 100 µM | TGI (NCI-H23 lung): > 100 µM | TGI (SF-268 CNS): > 100 µM | TGI (HOP-62 NSCLC): > 100 µM

S=c1sc2ccccc2n1CN1CCN(Cc2ccccc2)CC1
TGI (RPMI-8226 leukemia): > 100 µM | TGI (NCI-H460 lung): > 100 µM | TGI (K-562 leukemia): > 100 µM | TGI (MOLT-4 leukemia): > 100 µM | TGI (OVCAR-3 ovarian): > 100 µM | TGI (NCI-H522 lung): > 100 µM | TGI (NCI-H23 lung): > 100 µM | TGI (SF-268 CNS): > 100 µM | TGI (HOP-62 NSCLC): > 100 µM

CC1(C)OC2C(CO)OC(/N=C(\NC#N)Oc3ccccc3)C2O1 (stereo not drawn)
TGI (RPMI-8226 leukemia): > 100 µM | TGI (NCI-H460 lung): > 100 µM | TGI (K-562 leukemia): > 100 µM | TGI (MOLT-4 leukemia): > 100 µM | TGI (OVCAR-3 ovarian): > 100 µM | TGI (TK-10 renal): > 100 µM | TGI (NCI-H23 lung): > 100 µM | TGI (SF-268 CNS): > 100 µM | TGI (HOP-62 NSCLC): > 100 µM

O=c1[nH]nc(Nc2ccccc2)c2nnn(Cc3ccccc3)c12
TGI (NCI-H460 lung): > 100 µM | TGI (K-562 leukemia): > 100 µM | TGI (MOLT-4 leukemia): > 100 µM | TGI (TK-10 renal): > 100 µM | TGI (NCI-H522 lung): > 100 µM | TGI (NCI-H23 lung): > 100 µM | TGI (SF-268 CNS): > 100 µM | TGI (HOP-62 NSCLC): 24 µM

O=C(/C=C/c1ccco1)c1ccc(Nc2ccnc3cc(Cl)ccc23)cc1
GI50 (NCI-H460 lung): 2.13 µM | TGI (NCI-H460 lung): > 100 µM | GI50 (K-562 leukemia): 2.97 µM | TGI (K-562 leukemia): > 100 µM | GI50 (MOLT-4 leukemia): 3.18 µM | TGI (MOLT-4 leukemia): > 100 µM | GI50 (OVCAR-3 ovarian): 4.73 µM | TGI (OVCAR-3 ovarian): > 100 µM | GI50 (TK-10 renal): > 100 µM | TGI (TK-10 renal): > 100 µM | GI50 (NCI-H522 lung): > 100 µM | TGI (NCI-H522 lung): > 100 µM | GI50 (NCI-H23 lung): > 100 µM | TGI (NCI-H23 lung): > 100 µM | GI50 (SF-268 CNS): > 100 µM | TGI (SF-268 CNS): > 100 µM | GI50 (HOP-62 NSCLC): > 100 µM | TGI (HOP-62 NSCLC): > 100 µM

Nc1nc(-c2ccccc2)cc(-c2ccc(F)cc2)c1-c1ccc(Cl)cc1
TGI (RPMI-8226 leukemia): > 100 µM | TGI (NCI-H460 lung): > 100 µM | TGI (K-562 leukemia): > 100 µM | TGI (MOLT-4 leukemia): > 100 µM | TGI (OVCAR-3 ovarian): > 100 µM | TGI (TK-10 renal): > 100 µM | TGI (NCI-H23 lung): > 100 µM | TGI (SF-268 CNS): > 100 µM | TGI (HOP-62 NSCLC): > 100 µM

Cn1c(=O)c2[nH]c(Nc3ccccc3)nc2n(C)c1=O
TGI (RPMI-8226 leukemia): > 10 µM | TGI (K-562 leukemia): > 10 µM | TGI (MOLT-4 leukemia): > 10 µM | TGI (TK-10 renal): > 10 µM | TGI (NCI-H23 lung): > 10 µM | TGI (SF-268 CNS): > 10 µM | TGI (HOP-62 NSCLC): > 10 µM

CSCC[C@@H](NC(=O)[C@H](CC(C)C)NC(=O)C(Cc1cnc[nH]1)NC(=O)CNC(=O)[C@@H](NC(=O)[C@H](C)NC(=O)[C@H](Cc1cn(C=O)c2ccccc12)NC(=O)[C@H](CCC(N)=O)NC(=O)[C@@H](N)CC(N)=O)C(C)C)C(N)=O (stereo partly drawn)
TGI (RPMI-8226 leukemia): > 100 µM | TGI (NCI-H460 lung): > 100 µM | TGI (K-562 leukemia): > 100 µM | TGI (MOLT-4 leukemia): > 100 µM | TGI (OVCAR-3 ovarian): > 100 µM | TGI (NCI-H522 lung): > 100 µM | TGI (NCI-H23 lung): > 100 µM | TGI (SF-268 CNS): > 100 µM | TGI (HOP-62 NSCLC): > 100 µM

Oc1cccc(-c2cc(=S)ss2)c1
TGI (RPMI-8226 leukemia): 5.91 µM | TGI (NCI-H460 lung): 32.8 µM | TGI (K-562 leukemia): 60.6 µM | TGI (MOLT-4 leukemia): > 100 µM | TGI (TK-10 renal): 33.1 µM | TGI (NCI-H522 lung): 20.4 µM | TGI (NCI-H23 lung): 23.1 µM | TGI (SF-268 CNS): 32.6 µM | TGI (HOP-62 NSCLC): 34.3 µM

CC(=O)Nc1ccc(S(=O)(=O)/N=c2/sc(S(N)(=O)=O)nn2C)cc1
TGI (RPMI-8226 leukemia): > 100 µM | TGI (NCI-H460 lung): > 100 µM | TGI (MOLT-4 leukemia): > 100 µM | TGI (OVCAR-3 ovarian): > 100 µM | TGI (TK-10 renal): > 100 µM | TGI (NCI-H522 lung): > 100 µM | TGI (NCI-H23 lung): > 100 µM | TGI (SF-268 CNS): > 100 µM | TGI (HOP-62 NSCLC): > 100 µM

CCCCc1ccc(Nc2nc(N)c3[nH]cnc3n2)cc1
TGI (RPMI-8226 leukemia): 77.5 µM | TGI (NCI-H460 lung): 52.2 µM | TGI (K-562 leukemia): > 100 µM | TGI (MOLT-4 leukemia): 40.2 µM | TGI (OVCAR-3 ovarian): 51.9 µM | TGI (TK-10 renal): 43.2 µM | TGI (NCI-H522 lung): 28.8 µM | TGI (NCI-H23 lung): 32.8 µM | TGI (SF-268 CNS): 32.8 µM

O=C(OCc1ccccc1[N+](=O)[O-])N1c2ccccc2[C@@]23O[C@]24CCC[C@H]3C#C/C=C\C#C[C@H]14
TGI (NCI-H460 lung): > 100 µM | TGI (K-562 leukemia): > 100 µM | TGI (MOLT-4 leukemia): 8.11 µM | TGI (OVCAR-3 ovarian): > 100 µM | TGI (TK-10 renal): > 100 µM | TGI (NCI-H522 lung): > 100 µM | TGI (NCI-H23 lung): > 100 µM | TGI (SF-268 CNS): > 100 µM
